Key:
MV4-11 cells = assay: MV4-11 Cell Cytotoxicity Assay; assay type: cell-based, human; settings: human, MV4-11 cells, CCK-8
Text: % Inhibition=100−(D−B)/(S−B)*100%.
S: The absorbance of the maximum (cells with DMSO)
B: The absorbance of the minimum (medium with DMSO)

BRD4 (BD1+BD2) = target: T1, BRD4 (BD1+BD2) (Homo sapiens, UniProt O60885); settings: read-out: BRD4 Binding Potency
T1 construct: 1.8 μg/ml recombinant BRD4 (BD1+BD2 domains) protein

HSP90α = HSP90α (Homo sapiens, UniProt P07900); assay: HSP90α Binding Fluorescent Polarization (FP) Assay; settings: competition with FITC-geldanamycin; read-out: HSP90 Binding Potency
Method in brief: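 Competitive FP assay in which compound displaces FITC-geldanamycin from recombinant HSP90α (28 μg/ml before addition) in BSA-containing buffer. Compounds in 3-fold series from 40 μM to 2.0 nM (dilution-plate concentrations), tested in duplicate. Readings after 30, 60 and 120 min at 25 °C; background-subtracted mP fitted to four-parameter log[inhibitor]-response curve.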

| SMILES | IC50 at 72 h (MV4-11 cells) [nM] | IC50 (BRD4 (BD1+BD2)) [nM] | IC50 (HSP90α) [nM] |
| --- | --- | --- | --- |
| Cc1sc2c(c1C)C(c1ccc(Cl)cc1)=N[C@@H](CC(=O)NCc1ccc(CN3CCC(Cc4ccc(-n5c(C(=O)NCC(F)(F)F)nnc5-c5cc(C(C)C)c(O)cc5O)cc4)CC3)cc1)c1nnc(C)n1-2 [Compound 96, (S)-4-(4-((1-(4-((2-(4-(4-chlorophenyl)-2,3,9-trimethyl-6H-thieno[3,2-f][1,2,4]triazolo[4,3-a][1,4]diazepin-6-yl)acetamido)methyl)benzyl)piperidin-4-yl)methyl)phenyl)-5-(2,4-dihydroxy-5-isopropylphenyl)-N-(2,2,2-trifluoroethyl)-4H-1,2,4-triazole-3-carboxamide, trifluoroacetic acid] | < 100 | < 100 | 100 to 1000 |
| Cc1sc2c(c1C)C(c1ccc(Cl)cc1)=N[C@@H](CC(=O)N[C@H](C)c1cccc(CN3CCC(Cc4ccc(-n5c(C(=O)NCC(F)(F)F)nnc5-c5cc(C(C)C)c(O)cc5O)cc4)CC3)c1)c1nnc(C)n1-2 [Compound 97, 4-(4-((1-(3-((R)-1-(2-((S)-4-(4-chlorophenyl)-2,3,9-trimethyl-6H-thieno[3,2-f][1,2,4]triazolo[4,3-a][1,4]diazepin-6-yl)acetamido)ethyl)benzyl)piperidin-4-yl)methyl)phenyl)-5-(2,4-dihydroxy-5-isopropylphenyl)-N-(2,2,2-trifluoroethyl)-4H-1,2,4-triazole-3-carboxamide, trifluoroacetic acid] | < 100 | < 100 | 100 to 1000 |
| Cc1sc2c(c1C)C(c1ccc(Cl)cc1)=N[C@@H](CC(=O)NCCc1ccc(CN3CCC(Cc4ccc(-n5c(O)nnc5-c5cc(C(C)C)c(O)cc5O)cc4)CC3)cc1)c1nnc(C)n1-2 [Compound 98, (S)-2-(4-(4-chlorophenyl)-2,3,9-trimethyl-6H-thieno[3,2-f][1,2,4]triazolo[4,3-a][1,4]diazepin-6-yl)-N-(4-((4-(4-(3-(2,4-dihydroxy-5-isopropylphenyl)-5-hydroxy-4H-1,2,4-triazol-4-yl)benzyl)piperidin-1-yl)methyl)phenethyl)acetamide, trifluoroacetic acid] | < 100 | 100 to 1000 | 100 to 1000 |
| Cc1sc2c(c1C)C(c1ccc(Cl)cc1)=N[C@@H](CC(=O)N(C)CCOc1ccc(CN(C)Cc3ccc(-n4c(O)nnc4-c4cc(C(C)C)c(O)cc4O)cc3)cc1)c1nnc(C)n1-2 [Compound 99, (S)-2-(4-(4-chlorophenyl)-2,3,9-trimethyl-6H-thieno[3,2-f][1,2,4]triazolo[4,3-a][1,4]diazepin-6-yl)-N-(2-(4-(((4-(3-(2,4-dihydroxy-5-isopropylphenyl)-5-hydroxy-4H-1,2,4-triazol-4-yl)benzyl)(methyl)amino)methyl)phenoxy)ethyl)-N-methylacetamide, formic acid] | < 100 | > 1000 | 100 to 1000 |
| CCN(Cc1ccc(OCCCNC(=O)C[C@@H]2N=C(c3ccc(Cl)cc3)c3c(sc(C)c3C)-n3c(C)nnc32)cc1)Cc1ccc(-n2c(O)nnc2-c2cc(C(C)C)c(O)cc2O)cc1 [Compound 100, (S)-2-(4-(4-chlorophenyl)-2,3,9-trimethyl-6H-thieno[3,2-f][1,2,4]triazolo[4,3-a][1,4]diazepin-6-yl)-N-(3-(4-(((4-(3-(2,4-dihydroxy-5-isopropylphenyl)-5-hydroxy-4H-1,2,4-triazol-4-yl)benzyl)(ethyl)amino)methyl)phenoxy)propyl)acetamide, formic acid] | < 100 | 100 to 1000 | 100 to 1000 |
| Cc1sc2c(c1C)C(c1ccc(Cl)cc1)=N[C@@H](CC(=O)N(C)CCOc1ccc(CN(C)Cc3ccc(-n4c(C(=O)NCC(F)(F)F)nnc4-c4cc(C(C)C)c(O)cc4O)cc3)cc1)c1nnc(C)n1-2 [Compound 101, (S)-4-(4-(((4-(2-(2-(4-(4-chlorophenyl)-2,3,9-trimethyl-6H-thieno[3,2-f][1,2,4]triazolo[4,3-a][1,4]diazepin-6-yl)-N-methylacetamido)ethoxy)benzyl)(methyl)amino)methyl)phenyl)-5-(2,4-dihydroxy-5-isopropylphenyl)-N-(2,2,2-trifluoroethyl)-4H-1,2,4-triazole-3-carboxamide, formic acid] | < 100 | > 1000 | > 1000 |
| CCN(Cc1ccc(OCCCNC(=O)C[C@@H]2N=C(c3ccc(Cl)cc3)c3c(sc(C)c3C)-n3c(C)nnc32)cc1)Cc1ccc(-n2c(C(=O)NCC(F)(F)F)nnc2-c2cc(C(C)C)c(O)cc2O)cc1 [Compound 102, (S)-4-(4-(((4-(3-(2-(4-(4-chlorophenyl)-2,3,9-trimethyl-6H-thieno[3,2-f][1,2,4]triazolo[4,3-a][1,4]diazepin-6-yl)acetamido)propoxy)benzyl)(ethyl)amino)methyl)phenyl)-5-(2,4-dihydroxy-5-isopropylphenyl)-N-(2,2,2-trifluoroethyl)-4H-1,2,4-triazole-3-carboxamide, trifluoroacetic acid] | < 100 | > 1000 | > 1000 |
| Cc1sc2c(c1C)C(c1ccc(Cl)cc1)=N[C@@H](CC(=O)N1CCC(CN3CCN(Cc4ccc(-n5c(O)nnc5-c5cc(C(C)C)c(O)cc5O)cc4)CC3)CC1)c1nnc(C)n1-2 [Compound 103, (S)-2-(4-(4-chlorophenyl)-2,3,9-trimethyl-6H-thieno[3,2-f][1,2,4]triazolo[4,3-a][1,4]diazepin-6-yl)-1-(4-((4-(4-(3-(2,4-dihydroxy-5-isopropylphenyl)-5-hydroxy-4H-1,2,4-triazol-4-yl)benzyl)piperazin-1-yl)methyl)piperidin-1-yl)ethan-1-one acetate] | < 100 | 100 to 1000 | 100 to 1000 |
| CCc1cc(-c2nnc(C(=O)NCCN(CC)CC)n2-c2ccc(CN3CCN(CC4CCN(C(=O)C[C@@H]5N=C(c6ccc(Cl)cc6)c6c(sc(C)c6C)-n6c(C)nnc65)CC4)CC3)cc2)c(O)cc1O [Compound 104, (S)-4-(4-((4-((1-(2-(4-(4-chlorophenyl)-2,3,9-trimethyl-6H-thieno[3,2-f][1,2,4]triazolo[4,3-a][1,4]diazepin-6-yl)acetyl)piperidin-4-yl)methyl)piperazin-1-yl)methyl)phenyl)-N-(2-(diethylamino)ethyl)-5-(5-ethyl-2,4-dihydroxyphenyl)-4H-1,2,4-triazole-3-carboxamide, trifluoroacetic acid] | < 100 | < 100 | 100 to 1000 |
| CCc1cc(-c2nnc(C(=O)NC(C)C)n2-c2ccc(CN3CCN(CC4CCN(C(=O)C[C@@H]5N=C(c6ccc(Cl)cc6)c6c(sc(C)c6C)-n6c(C)nnc65)CC4)CC3)cc2)c(O)cc1O [Compound 105, (S)-4-(4-((4-((1-(2-(4-(4-chlorophenyl)-2,3,9-trimethyl-6H-thieno[3,2-f][1,2,4]triazolo[4,3-a][1,4]diazepin-6-yl)acetyl)piperidin-4-yl)methyl)piperazin-1-yl)methyl)phenyl)-5-(5-ethyl-2,4-dihydroxyphenyl)-N-isopropyl-4H-1,2,4-triazole-3-carboxamide, trifluoroacetic acid] | < 100 | 100 to 1000 | 100 to 1000 |
| CCc1cc(-c2nnc(C(N)=O)n2-c2ccc(CN3CCN(CC4CCN(C(=O)C[C@@H]5N=C(c6ccc(Cl)cc6)c6c(sc(C)c6C)-n6c(C)nnc65)CC4)CC3)cc2)c(O)cc1O [Compound 106, (S)-4-(4-((4-((1-(2-(4-(4-chlorophenyl)-2,3,9-trimethyl-6H-thieno[3,2-f][1,2,4]triazolo[4,3-a][1,4]diazepin-6-yl)acetyl)piperidin-4-yl)methyl)piperazin-1-yl)methyl)phenyl)-5-(5-ethyl-2,4-dihydroxyphenyl)-4H-1,2,4-triazole-3-carboxamide, trifluoroacetic acid] | < 100 | 100 to 1000 | 100 to 1000 |
| Cc1sc2c(c1C)C(c1ccc(Cl)cc1)=N[C@@H](CC(=O)N1CCC(CN3CCN(Cc4ccc(-n5c(C(=O)NCCN6CCCCC6)nnc5-c5cc(C(C)C)c(O)cc5O)cc4)CC3)CC1)c1nnc(C)n1-2 [Compound 107, (S)-4-(4-((4-((1-(2-(4-(4-chlorophenyl)-2,3,9-trimethyl-6H-thieno[3,2-f][1,2,4]triazolo[4,3-a][1,4]diazepin-6-yl)acetyl)piperidin-4-yl)methyl)piperazin-1-yl)methyl)phenyl)-5-(2,4-dihydroxy-5-isopropylphenyl)-N-(2-(piperidin-1-yl)ethyl)-4H-1,2,4-triazole-3-carboxamide, trifluoroacetic acid] | < 100 | < 100 | 100 to 1000 |
| Cc1sc2c(c1C)C(c1ccc(Cl)cc1)=N[C@@H](CC(=O)N1CCC(CN3CCN(Cc4ccc(-n5c(C(=O)NC(C)C)nnc5-c5cc(C(C)C)c(O)cc5O)cc4)CC3)CC1)c1nnc(C)n1-2 [Compound 108, (S)-4-(4-((4-((1-(2-(4-(4-chlorophenyl)-2,3,9-trimethyl-6H-thieno[3,2-f][1,2,4]triazolo[4,3-a][1,4]diazepin-6-yl)acetyl)piperidin-4-yl)methyl)piperazin-1-yl)methyl)phenyl)-5-(2,4-dihydroxy-5-isopropylphenyl)-N-isopropyl-4H-1,2,4-triazole-3-carboxamide, trifluoroacetic acid] | 100 to 1000 | > 1000 | > 1000 |
